Key:
A375 melanoma cells [1] = assay: Cell proliferation WST-1 assay, single dose (Example 4); assay type: cell-based; settings: 100 μM, 48 hours
Procedure, shortened: (§1)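 Proliferation is measured by WST-1 reduction: after roughly 5000 cells per well rest 16-20 hours, they receive compound for 48 hours, and the signal is normalized to DMSO control.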

[2] = system: Jurkat T-cell leukemia cells; assay: as above; assay type: cell-based; settings: 100 μM, 48 hours
Procedure, shortened: as §1

RPMI-7951 melanoma cells = assay: as above; assay type: cell-based; settings: 100 μM, 48 hours
Procedure, shortened: as §1

[3] = system: HeLa cervical carcinoma cells; assay: as above; assay type: cell-based; settings: 100 μM, 48 hours
Procedure, shortened: as §1

HL-60 leukemic cells = assay: as above; assay type: cell-based; settings: 100 μM, 48 hours
Procedure, shortened: as §1

SK-MEL-28 melanoma cells [4] = assay: as above; assay type: cell-based; settings: 100 μM, 48 hours
Procedure, shortened: as §1

[5] = basic group replacing the ethylamine group; cited from earlier work
A375 melanoma cells [6] = assay: Dose-response growth inhibition (GI50) of select compounds; assay type: cell-based; settings: Homo sapiens, A-375, 48 h, two days
Description: (§2) An example of the dose response curve for compound 30h and the BRaf inhibitor PLX4032 for inhibiting the growth of melanoma cell lines is shown in FIG. 14. […] A summary of GI50 values for select compounds along with comparisons to know ERK pathway inhibitors in various cell lines is shown in Table 13. […] First, thiazolidinedione compounds have been identified to be selective inhibitors of cancer cell lines containing activated ERK signaling. Second, changes in the 4-ethoxyphenyl component of the parent compound 76 improve selectivity and potency for inhibiting melanoma cell growth. Third, compound 30h is a potent inhibitor of melanoma cell lines that have become resistant to the clinically relevant BRaf and MEK inhibitors. […] Lastly, 30h is as potent as the ATP-competitive pyrazolopyridazinamine ERK inhibitor (FR180204) in preventing melanoma cell proliferation and provides an alternative non-ATP-dependent approach to target cancer cells that are dependent on active ERK signaling.
(§3) Melanoma cells (A375, SK-MEL-28, and RPMI7951) were seeded at a density of 5,000 per well in 96-well plate. After overnight incubation, cells were treated with varying doses of PLX4032 (A) or 31h (B) for two days. Cell viability was determined by the addition of Cell Titer-Blue Reagent (20 μL/well) followed by 2 hours of incubation at 37° C. after which fluorescence was recorded (555/585 nm). Cell viability was expressed as percentage of vehicle control and data represent the average of three individual experiments.

SK-MEL-28 melanoma cells [7] = assay: as above; assay type: cell-based; settings: Homo sapiens, SK-MEL-28, 48 h, two days
Description: as §2, §3

RPMI7951 melanoma cells [8] = assay: as above; assay type: cell-based; settings: Homo sapiens, RPMI-7951, 48 h, two days
Description: as §2, §3

[9] = system: activator protein-1 (AP-1) promoter; assay: AP-1 promoter luciferase assay, HeLa cells (Example 4); assay type: cell-based
Description: (§4) HeLa cells were seeded in 24-well plates (4×10^4 cells/well) and incubated 18 hours prior to achieve ˜60-70% confluent. Cells were transfected with activator protein-1 (pAP1(PMA)-TA-Luc; Clontech) or the serum response element (pGL4.33-SRE; Promega) luciferase reporter plasmids (250 ng/well) using Lipofectamine™ (Invitrogen). After 16 hours, cells were treated with increasing amount of compounds as indicated for 20 minutes, followed by stimulation with EGF (25 ng/mL) for 4.5 hr. The luciferase activity in the cell extracts was determined with a Dual Luciferase Assay System (Promega) according to the manufacturer's instructions. Luciferase activities were monitored with a Lumat LB 9507 luminometer (Berthold Technology) and data were normalized to the amount of protein in each sample.

Jurkat cells = assay: Dose-response growth inhibition (GI50) of select compounds; assay type: cell-based; settings: Homo sapiens, Jurkat
[10] = system: serum response element (SRE); assay: SRE promoter luciferase assay, HeLa cells (Example 4); assay type: cell-based
Description: as §4

HeLa cells = assay: Dose-response growth inhibition (GI50) of select compounds; assay type: cell-based; settings: Homo sapiens, HeLa
[11] = system: MEK1-induced AP-1 promoter activity; assay: AP-1 promoter luciferase assay, HeLa cells expressing active MEK1 mutant; assay type: cell-based; settings: Homo sapiens, 4 hours, read-out: IC50 inhibition of MEK1-induced AP-1 promoter activity
Description: FIG. 4. Compound SF-3-026 and analogs inhibit SRE and AP-1 transcription factor function. (a) HeLa cells were transfected with constructs containing SRE or AP-1 promoters driving luciferase expression and then stimulated with EGF in the presence or absence of SF-3-026 for 4 hours followed by measurements of luciferase activity. Cells treated with U0126 were used as a positive inhibitor control. (b and c) HeLa cells were prepared and treated as in (a) with the indicated concentrations of SF-3-026 or analogs for 4 hours followed by the measurement of luciferase activity regulated by the SRE (b) or AP-1 (c) promoters. Data in (b and c) were normalized to EGF-only treatment and represent the mean and standard deviation from three independent experiments. (d) Compound SF-3-026 and analogs inhibit MEK1-induced AP-1 transcription factor function. HeLa cells were transfected with the AP-1 promoter construct and a constitutively active MEK1 mutant in the presence (10 μM) or absence of the MEK1/2 inhibitor (U0126) or an ATP-competitive ERK inhibitor (ERKi) for 4 hours followed by measurements of luciferase activity. (e) Cells expressing the AP-1 promoter and an active MEK-1 construct were treated with the indicated concentrations of SF-3-026 or analogs for 4 hours followed by the measurement of luciferase activity. Data in (e) were normalized to active MEK1-only treatment and represent the mean and standard deviation from three independent experiments.
as §4, with “(40,000” for “(4×10^4”, “hours” for “hours prior”, “pre-treated” for “treated”, “varying amounts” for “increasing amount”, “hr. In some experiments, cells transfected with the pAP1(PMA)-TA-Luc promoter and a constitutively active MEK1 mutant cDNA were treated with varying amounts of compounds during the last 4 hours of incubation.” for “hr.”, “sample. […]” for “sample.”

A375 melanoma cells [12] = assay: Cell proliferation, fluorescent Cell Titer Blue Assay (Example 1); assay type: cell-based; settings: Homo sapiens, A-375; 48 hours
Description: (§5) FIG. 5. Dose dependent inhibition of cancer cell proliferation in vitro by SF-3-026 and analogs. A375 (closes circles), RPM17951 (closed squares), HeLa (open circles), or Jurkat (open squares) cells were treated for 48 hours with indicated concentration of (a) SF-3-026, (b) SF-2-027, (c) SF-2-029, or (d) SF-2-030 and cell proliferation was assessed by the fluorescent Cell Titer Blue Assay. The data were reproduced in 3 separate experiments.
(§6) Cells were seeded at 25,000 cells/well in 96-well plate and cultured overnight. Cells were treated for 24 hours with various concentrations of compounds and cell viability or caspase 3/7 activity were measured according to manufacturer's instructions using the fluorescent Cell Titer Blue Assay (Promega) or luminescent Caspase 3/7 Glo Assay (Promega).
(§7) It was next determined whether inhibition of AP-1 proteins by SF-3-026 and analogs affected the proliferation of cancer cells driven by mutations that constitutively activate the ERK1/2 pathway. For these experiments, A375 and RPMI7951 melanoma cells, which have a valine to glutamate mutation on residue 600 in BRaf that causes constitutive ERK1/2 activation, were chosen. Moreover, RPMI7951 cells are resistant to clinically used BRaf inhibitors due to overexpression of MAP3K8 (the gene encoding COT/Tp12) that re-activates ERK1/2 signaling. Both melanoma cells lines were treated with varying doses of SF-3-026 or analogs and cell viability was compared to HeLa cervical carcinoma and Jurkat T-cell leukemia cells, which are p53 defective but contain no known activating mutations in the ERK1/2 pathway.

[13] = system: Jurkat T-cell leukemia cells; assay: as above; assay type: cell-based; settings: Homo sapiens, 48 hours
Description: as §5, §6, §7

[14] = system: HeLa cervical carcinoma cells; assay: as above; assay type: cell-based; settings: Homo sapiens, 48 hours
Description: as §5, §6, §7

RPMI7951 melanoma cells [15] = assay: as above; assay type: cell-based; settings: Homo sapiens, RPMI-7951; 48 hours
Description: as §5, §6, §7

AP-1 promoter = AP-1 promoter luciferase assay, EGF-stimulated HeLa cells (Example 1); assay type: cell-based; settings: Homo sapiens, EGF stimulation, 4 hours, read-out: IC50 inhibition of the AP-1 promoter
Description: FIG. 4. Compound SF-3-026 and analogs inhibit SRE and AP-1 transcription factor function. (a) HeLa cells were transfected with constructs containing SRE or AP-1 promoters driving luciferase expression and then stimulated with EGF in the presence or absence of SF-3-026 for 4 hours followed by measurements of luciferase activity. Cells treated with U0126 were used as a positive inhibitor control. (b and c) HeLa cells were prepared and treated as in (a) with the indicated concentrations of SF-3-026 or analogs for 4 hours followed by the measurement of luciferase activity regulated by the SRE (b) or AP-1 (c) promoters. Data in (b and c) were normalized to EGF-only treatment and represent the mean and standard deviation from three independent experiments. (d) Compound SF-3-026 and analogs inhibit MEK1-induced AP-1 transcription factor function. […]
HeLa cells were seeded in 24-well plates (40,000 cells/well) and incubated 18 hours to achieve ˜60-70% confluent. […] The luciferase activity in the cell extracts was determined with a Dual Luciferase Assay System (Promega) according to the manufacturer's instructions. Luciferase activities were monitored with a Lumat LB 9507 luminometer (Berthold Technology) and data were normalized to the amount of protein in each sample. […]

Compound | Cell Viability (% of Vehicle) A375 (A375 melanoma cells [1]) | Cell Viability (% of Vehicle) Jurkat [2] | Cell Viability (% of Vehicle) RPMI-7951 (RPMI-7951 melanoma cells) | Cell Viability (% of Vehicle) HeLa [3] | Cell Viability (% of Vehicle) HL-60 (HL-60 leukemic cells) | Cell Viability (% of Vehicle) SK-MEL-28 (SK-MEL-28 melanoma cells [4]) | pKa [5] | also measured
CCOc1ccc(/C=C2\SC(=O)N(Cc3cnc[nH]3)C2=O)cc1 [Compound 28a, (Z)-3((1H-imidazol-5-yl)methyl)-5-(4-ethoxybenzylidene)thiazolidine-2,4-dione] | 101 ± 2 % of Vehicle | 106 ± 6 % of Vehicle | 70 ± 2 % of Vehicle | 80 ± 4 % of Vehicle | 123 ± 20 % of Vehicle | 74 ± 6 % of Vehicle | ~7 | 
CCOc1ccc(/C=C2\SC(=O)N(Cc3cccc(N)n3)C2=O)cc1 [Compound 28b, (Z)-3-((6-aminopyridin-2-yl)methyl)-5-(4-ethoxybenzylidene)thiazolidine-2,4-dione] | 111 ± 1 % of Vehicle | 105 ± 5 % of Vehicle | 101 ± 4 % of Vehicle | 87 ± 6 % of Vehicle | 107 ± 26 % of Vehicle | 86 ± 3 % of Vehicle | ~6 | 
[H]/N=C(/N)NCCN1C(=O)SC(=Cc2ccc(OCC)cc2)C1=O [Compound 28c, (Z)-1-(2-(5-(4-ethoxybenzylidene)-2,4-dioxothiazolidin-3-yl)ethyl)guanidine] | 31 ± 4 % of Vehicle | 6.5 ± 0.5 % of Vehicle | 42 ± 6 % of Vehicle | 17 ± 2 % of Vehicle | 20 ± 6 % of Vehicle | 55 ± 6 % of Vehicle | ~12 | 
CC(C)COc1ccc(/C=C2\SC(=O)N(CCN)C2=O)cc1 [Compound 30g, (Z)-3-(2-aminoethyl)-5-(4-isobutoxybenzylidene)thiazolidine-2,4-dione] | 1.8 ± 0.5 % of Vehicle | 91 ± 8 % of Vehicle | 0.3 ± 0.04 % of Vehicle | 48 ± 3 % of Vehicle | 5.0 ± 2 % of Vehicle | 0.8 ± 0.2 % of Vehicle |  | GI50 (A375 melanoma cells [6]): 22 µM; GI50 (SK-MEL-28 melanoma cells [7]): 36 µM; GI50 (RPMI7951 melanoma cells [8]): 11 µM; IC50 ([9]; Homo sapiens, EGF 25 ng/mL, read-out: estimated IC50 AP-1 promoter activity): ≤ 5 µM; GI50 (Jurkat cells): > 100 µM; IC50 ([10]; Homo sapiens, EGF 25 ng/mL, read-out: estimated IC50 SRE promoter activity): ≤ 5 µM; GI50 (HeLa cells): ~100 µM
NCCN1C(=O)S/C(=C\c2ccc(OCc3ccccc3)cc2)C1=O [Compound 30h, (Z)-3-(2-aminoethyl)-5-(4-(benzyloxy)benzylidene)thiazolidine-2,4-dione] | 0.6 ± 0.4 % of Vehicle | 87 ± 5 % of Vehicle | 0.2 ± 0.04 % of Vehicle | 59 ± 3 % of Vehicle | 5.2 ± 2 % of Vehicle | 1.0 ± 1 % of Vehicle |  | GI50 (A375 melanoma cells [6]): 7 µM; GI50 (SK-MEL-28 melanoma cells [7]): 9 µM; GI50 (RPMI7951 melanoma cells [8]): 7 µM; inhibition of ERK-mediated AP-1 promoter activity ([9]; EGF): less potent than compounds 76 and 30g at lower concentrations; GI50 (Jurkat cells): > 100 µM; inhibition of ERK-mediated SRE promoter activity ([10]; EGF): less potent than compounds 76 and 30g at lower concentrations; GI50 (HeLa cells): > 100 µM
Cc1ccc(S(=O)(=O)OC2C=CS(=O)(=O)C2)cc1 (stereo not shown) [SF-3-027] |  |  |  |  |  |  |  | IC50 [11]: ~40 µM; GI50 (A375 melanoma cells [12]): 5.5 µM; GI50 [13]: > 50 µM; GI50 [14]: 22 µM; GI50 (RPMI7951 melanoma cells [15]): 3.1 µM
O=S1(=O)C=CC(OS(=O)(=O)c2ccc(-c3ccccc3)cc2)C1 (stereo not shown) [SF-3-029] |  |  |  |  |  |  |  | IC50 [11]: 5 to 10 µM; GI50 (A375 melanoma cells [12]): 7.9 µM; GI50 [13]: > 50 µM; GI50 [14]: 25 µM; GI50 (RPMI7951 melanoma cells [15]): 4.9 µM; IC50 (AP-1 promoter): < 10 µM
